Test results as given in patent US20230398110A1, “COMPOSITIONS AND METHODS FOR TREATING NON-ALCOHOLIC STEATOHEPATITIS” (ASCENTAGE PHARMA (SUZHOU) CO., LTD., priority 2020, published 2023).

Assays:
[1] = system: rats with DEN-HFD-CHOL induced non-alcoholic steatohepatitis; test: DEN-HFD-CHOL induced NASH rat model, liver histology (NAS score, fibrosis); type: in vivo; details: 42 days; for NAS score (FIG. 3B) / ballooning (FIG. 3B) / steatosis, lobular inflammation and hepatocellular ballooning (HE-staining of liver tissue, FIG. 3A): Compound 1 10 and 30 mg/kg, GFT505 30 mg/kg
Text: Male SD rats, with an age of 10 days, were purchased from Vital River Co., Ltd (Beijing).
The rats were given a one-time intraperitoneal injection of diethylnitrosamine (DEN) two weeks after birth, and continued breast milk feeding for two weeks.
After four weeks, a total of 56 male rats were selected and divided into 7 groups according to animal weight. The rats were started on a high-fat, high-cholesterol diet (HFD-CHOL), with a feeding cycle of 12 weeks. Before intraperitoneal injection of DEN, 5 male rats were randomly selected for parallel feeding as a control cohort, which were fed a standard diet and not injected with DEN.
After 7 weeks of HFD-CHOL diet feeding, the animals were randomized and treatment with vehicle or the indicated compound was started. The test article administration and the animal numbers in each group are shown in the following experimental design Table 5.
The body weight of animals was measured at the day of the last administration (the end of the test). After the animal were fasted for 6 hours, all animals were euthanatized to collect blood and liver samples for biochemical and histological analysis.
Liver tissue from animals in each group were analyzed for NAS scores, the unweighted sum of the steatosis (0-3), lobular inflammation (0-3) and hepatocellular ballooning (0-2) scores, after HE-staining, and analyzed for liver fibrosis score (0-4) after Sirius red staining.
Liver tissue from animals in each group were analyzed for NAS scores using the methods disclosed above in Example 16. Specifically, the scores assessed were: • 1) the unweighted sum of the steatosis (0-3); • 2) lobular inflammation (0-3); • 3) hepatocellular ballooning (0-2); and • 4) liver fibrosis score (0-4), after Sirius red staining.
(§1) Prism, version 6, (GraphPad Software Inc., San Diego, CA) was used for all statistical analysis and for graphic presentation.
After drug treatment for 42 days, animals were euthanatized to collect liver samples for pathological analysis.

[2] = system: C57BL/6J mice induced with high-fat diet (HFD) and CCl4; test: HFD/CCl4 NASH mouse model, liver histology (NAS score, fibrosis); type: in vivo
Method: Male C57BL/6J mice with an age of 18 weeks were purchased from GemPharmatech Co., Ltd (Nanjing, Jiangsu). Mice were first fed with high-fat diet (HFD) for 11 weeks to induced obesity. Carbon tetrachloride (25% CCl4, 0.5 μl/g) was then intraperitoneally injected twice weekly for 4 consecutive weeks, to induce liver damages, leading to inflammation, cell death and fibrosis. The day of the first carbon tetrachloride injection was dated as day 0. At day 7, the animals were randomized and treatment started. The test article administration and the animal numbers in each group are shown in the following experimental design Table 3.
All animals were euthanatized at day 28 to collect blood and liver samples for biochemical and histological analysis.
Liver tissue from animals in each group were analyzed for NAS scores.
Specifically, the scores assessed were: • 1) the unweighted sum of the steatosis (0-3); • 2) lobular inflammation (0-3); • 3) hepatocellular ballooning (0-2); and • 4) liver fibrosis score (0-4), after Sirius red staining.
Liver tissues of each group of animals were taken, and NAS scores were analyzed by hematoxylin-eosin (HE) staining, and liver fibrosis was analyzed by Sirius red staining.
After staining, the NAS scores of the prepared samples were evaluated. In hematoxylin-eosin stained sections, NAS scores were evaluated according to the degree of steatosis, inflammatory cell infiltration and […].
After staining, fibrosis of the liver was additionally evaluated. All sections stained with Sirius Red were scanned by an Aperio VERSA 200 Brightfield & Fluorescenc slice scanner. Two fields were randomly selected under a 5×field of view. The two fields covered 85% of the liver tissue area. Quantitative analysis to calculate the area of fibrosis deposition in the slices was performed.
as §1
After drug treatment for 21 days, animals were euthanatized to collect liver samples for pathological analysis.

Mcl-1 = Mcl-1 (Homo sapiens, UniProt Q07820); test: FP saturation binding of fluorescent probe to Mcl-1; details: 2 nM probe, read-out: Kd of Flu-BID to Mcl-1
Method: Fluorescence polarization values were measured using an Infinite M-1000 plate reader (Tecan U.S., Research Triangle Park, N.C.) in Microfluor 96-well, black, round-bottom plates (Thermo Scientific). […] Plates were mixed and incubated at room temperature for 1 hour with gentle shaking to assure equilibrium. […] Equilibrium dissociation constants (Kd) were then calculated by fitting the sigmoidal dose-dependent FP increases as a function of protein concentrations using Graphpad Prism 5.0 software (Graphpad Software, San Diego, Calif.).

[3] = Compound 1 10 and 30 mg/kg vs GFT505 30 mg/kg, qd p.o.
[4] = Compound 1 50 mg/kg qd p.o., 21 days

Mcl-1, sequence (Q07820 whole entry): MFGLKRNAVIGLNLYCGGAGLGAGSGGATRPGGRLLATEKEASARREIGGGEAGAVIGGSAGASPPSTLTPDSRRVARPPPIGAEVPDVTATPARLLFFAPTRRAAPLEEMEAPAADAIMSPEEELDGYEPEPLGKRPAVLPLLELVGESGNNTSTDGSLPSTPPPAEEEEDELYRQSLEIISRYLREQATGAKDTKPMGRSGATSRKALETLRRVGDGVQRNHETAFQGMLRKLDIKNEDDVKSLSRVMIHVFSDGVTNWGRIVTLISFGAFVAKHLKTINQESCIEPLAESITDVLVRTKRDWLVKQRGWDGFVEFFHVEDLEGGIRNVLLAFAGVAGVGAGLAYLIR

Molecule	fibrosis (Sirius red staining, fibrosis score, FIG. 4A/4B) ([1]; Compound 1 10 and 30 mg/kg qd p.o.)	anti-inflammation effects compared with GFT505 [1, 3]	effects on steatosis compared with GFT505 [1, 3]	NAS score (FIG. 3B) ([1]; qd p.o.)	ballooning (FIG. 3B) ([1]; qd p.o.)	steatosis, lobular inflammation and hepatocellular ballooning (HE-staining of liver tissue, FIG. 3A) ([1]; qd p.o.)	fibrosis (Sirius red staining, fibrosis score, FIG. 2A/2B) ([2]; Compound 1 50 mg/kg qd p.o. single agent, in comparison to OCA)	ballooning (NAS score analysis, FIG. 1B) [2, 4]	steatosis (NAS score analysis, FIG. 1B) [2, 4]	steatosis, lobular inflammation and hepatocellular ballooning (HE-staining of liver tissue, FIG. 1A) ([2]; Compound 1 50 mg/kg qd p.o., OCA 30 mg/kg qd p.o., alone or combined, 21 days)	anti-inflammation effect compared with OCA alone ([2]; Compound 1 50 mg/kg vs OCA 30 mg/kg, qd p.o., 21 days)	inflammation (NAS score analysis, FIG. 1B) ([2]; Compound 1 50 mg/kg, OCA 30 mg/kg, qd p.o., 21 days)	Kd (Mcl-1) [nM]
O=C(NS(=O)(=O)c1ccc(NC[C@H]2COCCO2)c([N+](=O)[O-])c1)c1ccc(N2CCN(CC3=C(c4ccc(Cl)cc4)CC4(CCC4)CC3)CC2)cc1Oc1cnc2[nH]ccc2c1 [Compound 1, (S)-N-((4-(((1,4-dioxan-2-yl)methyl)amino)-3-nitrophenyl)sulfonyl)-2-((1H-pyrrolo[2,3-b]pyridin-5-yl)oxy)-4-(4-((6-(4-chlorophenyl)spiro[3.5]non-6-en-7-yl)methyl)piperazin-1-yl)benzamide]	modest alleviation	improved anti-inflammation effects	more modest effects	significantly reduced	completely abolished	alleviated	modest effect	modest effects	reduced	alleviated	better anti-inflammation effect than OCA alone	reduced	–
CSc1ccc(C(=O)/C=C/c2cc(C)c(OC(C)(C)C(=O)O)c(C)c2)cc1 [GFT505, elafibranor, reference compound]	–	–	–	significantly reduced	completely abolished	alleviated	–	–	–	–	–	–	–
Flu-BID: Fluorescein labeled BID (79-99) peptide, fluorescent probe in FP assay for Mcl-1	–	–	–	–	–	–	–	–	–	–	–	–	6.9 ± 0.9
